For test [1], the target named is T1, α-glucosidase (Saccharomyces cerevisiae, UniProt P53341).
T1 construct: purchased Sigma-Aldrich (Shanghai, China) G5003-100UN
Put plainly: α-glucosidase inhibitory assay (pNPG substrate, absorbance at 405 nm). The format is biochemical. Here is the method:
The α-glucosidase inhibitory activity of the S. grosvenorii root extracts was determined using a method mentioned previously, with some modifications to it. Briefly, the sample was dissolved in PBS containing 10% dimethyl sulfoxide. A mixture of the tested sample (50 μL, different concentrations) and α-glucosidase (20 μL, 0.2 U/mL) was placed in a 96-well microplate and incubated at 37 °C for 5 min. Next, 20 μL pNPG (1 mM) was added, and the mixture was further reacted for 30 min at 37 °C and terminated through the addition of […] solution (50 μL, […]). The percentage inhibition of α-glucosidase was determined by measuring the absorbance of the mixture at 405 nm and calculated by Equation (1):Inhibition (%) = [1 − (Ainhibitor − Ablank inhibitor)/(Acontrol − Acontrol blank)] × 100(1) where Ainhibitor, Ablank inhibitor, Acontrol, Acontrol blank are the absorbance values of the potential inhibitor and α-glucosidase, only the potential inhibitor without α-glucosidase, only α-glucosidase, and PBS buffer, respectively.

For test [2], the target named is T1, α-glucosidase. Put plainly: Affinity ultrafiltration coupled with HPLC (UF-HPLC), specific binding factor. Particulars: peaks of SGR2 (10 mg/mL) incubated with α-glucosidase; active vs denatured enzyme. Here is the method:
Affinity UF was performed as previously described, with slight modifications. Briefly, a PBS solution of SGR2 (10 mg/mL, 800 μL) was mixed with α-glucosidase (1 U/mL, 400 μL) and incubated at 37 °C for 45 min. Next, the mixture was centrifuged at 10,000 rpm for 10 min using a UF membrane with a 10 kDa molecular weight cutoff, to collect the active component and α-glucosidase complexes. The complexes were washed 3 times with 600 μL of PBS (0.1 M, pH 7.2) to remove unbound compounds. A solution of 70% methanol (200 μL) was added to the residue and incubated at 4 °C for 20 min to release the bound compounds. Then, the solution was collected and concentrated to a dry state. Subsequently, the dry residue was further dissolved with 0.2 mL methanol and subjected to HPLC analysis. As a negative control, α-glucosidase was inactivated at 100 °C in a water bath for 10 min. […] The specific binding factors were calculated according to Equation (2):Specific binding factor (%) = (Aa − Ab)/Ac × 100%(2) where, Aa is the peak area of the experiment with active α-glucosidase, Ab is the peak area of the control group with denatured α-glucosidase, and Ac is the peak area of the extract.

The values that follow come from publication PMC10299727, “Identification and Isolation of α-Glucosidase Inhibitors from Siraitia grosvenorii Roots Using Bio-Affinity Ultrafiltration and Comprehensive Chromatography” (International Journal of Molecular Sciences, 2023).

Several values for one entry are separate records, joined by “and”; a condition that tells them apart may be missing. Equal values may be shown once. Read-outs that look alike come from different tables or passages of the source.

For orientation: inhibition means the change of the read-out against control, counted positive when it falls. Lower therefore signals little suppression. As a reminder, the IC50 is the concentration that gives 50% inhibition.

T1 sequence (P53341 whole entry): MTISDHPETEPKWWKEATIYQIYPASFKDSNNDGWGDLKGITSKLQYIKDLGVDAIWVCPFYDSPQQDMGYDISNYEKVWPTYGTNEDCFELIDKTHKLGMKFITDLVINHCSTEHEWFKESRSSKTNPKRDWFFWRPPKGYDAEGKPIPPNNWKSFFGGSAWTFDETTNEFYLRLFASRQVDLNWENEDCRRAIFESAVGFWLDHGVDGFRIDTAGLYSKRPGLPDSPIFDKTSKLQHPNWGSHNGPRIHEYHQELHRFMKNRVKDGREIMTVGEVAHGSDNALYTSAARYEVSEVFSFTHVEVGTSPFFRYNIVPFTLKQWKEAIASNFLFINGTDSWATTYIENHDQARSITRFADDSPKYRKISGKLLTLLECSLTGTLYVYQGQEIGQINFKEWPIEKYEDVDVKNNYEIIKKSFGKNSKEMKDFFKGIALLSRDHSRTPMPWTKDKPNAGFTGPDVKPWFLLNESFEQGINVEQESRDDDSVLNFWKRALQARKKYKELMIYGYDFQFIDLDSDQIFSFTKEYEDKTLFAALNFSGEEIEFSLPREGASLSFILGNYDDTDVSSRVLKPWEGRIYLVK

`CC(=O)OC(C)(C)CCC(=O)[C@](C)(O)C1C(O)C[C@@]2(C)[C@@H]3CC=C4[C@@H](CC(=O)[C@@H](O)C4(C)C)[C@]3(C)C(=O)C[C@]12C` (some centres unmarked) [Compound 17, Dihydroisocucurbitacin B-25-acetate] returned an inhibition at 1000 µg/mL on α-glucosidase [1] of 23.7 ± 0.33%. The “Specific Binding Factors Mean ± SD (n = 3)” value at α-glucosidase [2] turned out to be 2.28 ± 0.44%.
Regarding `CC(=CCCC(C)C1CCC2(C)C3CCC4=C(C)C(=O)CCC4C3(C)C(=O)CC12C)C(=O)OC1OC(COC2OC(CO)C(O)C(O)C2O)C(O)C(O)C1O` (centres unmarked) [Compound 9, Siraitic acid II G], the inhibition at 1000 µg/mL against α-glucosidase [1] was 53.1 ± 0.99%. Besides, at α-glucosidase [1] (read-out: IC50), the IC50 is 1581 ± 12.5 µM. Besides, the “Specific Binding Factors Mean ± SD (n = 3)” value at α-glucosidase [2] came out at 5.33 ± 2.11%.
Compound `CC1=C2CCC3C(C)(C(=O)CC4(C)C(C(C)CC/C=C(\C)C(=O)OC5OC(CO)C(O)C(O)C5O)C(OC5OC(CO)C(O)C(O)C5O)CC34C)C2CCC1=O` (centres unmarked) [Compound 6, Siraitic acid IIb E] registered an inhibition at 1000 µg/mL against α-glucosidase [1] of 42.4 ± 0.81%. At α-glucosidase [2], the “Specific Binding Factors Mean ± SD (n = 3)” value is listed as 3.91 ± 0.17%.
For `C/C(=C\CCC(C)C1CCC2(C)C3CC=C4C(CCC(OC5OC(COC6OC(CO)C(O)C(O)C6O)C(O)C(O)C5O)C4(C)C)C3(C)C(=O)CC12C)C(=O)OC1OC(COC2OC(CO)C(O)C(O)C2O)C(O)C(O)C1O` (centres unmarked) [Compound 8, Siraitic acid IV H], in that order: 23.4 ± 1.05% and 0.27 ± 0.18%.
Take Cucurbitacin B [Compound 15]: the “Inhibition (%)” value on α-glucosidase [1] (concentration of 1.0 mg/mL compound) is 50.59 ± 0.98%. Further, on α-glucosidase [2], the “Specific Binding Factors Mean ± SD (n = 3)” value is 7.98% and 7.98 ± 1.11%.
`CC(=CCCC(C)C1C(O)CC2(C)C3CCC4=C(C)C(=O)CCC4C3C(=O)CC12C)C(=O)OC1OC(COC2OC(CO)C(O)C(O)C2O)C(O)C(O)C1O` (centres unmarked) [Compound 7, Siraitic acid II E] gave an inhibition at 1000 µg/mL at α-glucosidase [1] of 58.5 ± 1.19%. The IC50 at α-glucosidase [1] (read-out: IC50) amounted to 1207 ± 5.49 µM. The “Specific Binding Factors Mean ± SD (n = 3)” value at α-glucosidase [2] is recorded as 3.46 ± 1.03%.
As for `COc1cc(C[C@@H]2CO[C@@H](c3ccc(O)c(OC)c3)[C@@H]2CO)ccc1O` [Compound 1, (-)-lariciresinol], on α-glucosidase [1], the IC50 stood at 1830 ± 31.3 µM and the inhibition at 1000 µg/mL came out at 78.2 ± 1.54%. The “Specific Binding Factors Mean ± SD (n = 3)” value on α-glucosidase [2] worked out at 4.97 ± 0.15%.
The compound `CC(=CCCC(C)C1CCC2(C)C3CCC4=C(C)C(=O)CCC4C3C(=O)CC12C)C(=O)OC1OC(COC2OC(CO)C(O)C(O)C2O)C(O)C(O)C1O` (centres unmarked) [Compound 14, Siraitic acid II C] had an inhibition at 1000 µg/mL against α-glucosidase [1] of 72 ± 2.18%. The half-inhibitory concentration (IC50) on α-glucosidase [1] (read-out: IC50) was 430 ± 13.3 µM. Further, on α-glucosidase [2], the “Specific Binding Factors Mean ± SD (n = 3)” value was 17.26% and 17.26 ± 3.14%.
As to `C/C(=C\CCC(C)C1CCC2(C)C3CCC45OCC3(C(=O)CC12C)C4CCC(O)C5C)C(=O)OC1OC(COC2OC(CO)C(O)C(O)C2O)C(O)C(O)C1O` (centres unmarked) [Compound 11, Siraitic acid II A], at α-glucosidase [1], testing at 1000 µg/mL gave an inhibition of 50.6 ± 1.23%. On α-glucosidase [1] (read-out: IC50), the IC50 was 1240 ± 20.5 µM. In addition, the “Specific Binding Factors Mean ± SD (n = 3)” value at α-glucosidase [2] is recorded as 6.59 ± 0.91%.
`COc1cc([C@@H]2Oc3c(OC)cc(/C=C/CO)cc3[C@H]2CO)ccc1O` [Compound 2, 3,4′-dimethoxy-4,9,9′-trihydroxy-benzofuranolignan-7′-ene] had an inhibition at 1000 µg/mL against α-glucosidase [1] of 63.43 ± 0.23%. Further, on α-glucosidase [1] (read-out: IC50), the IC50 amounted to 2275 ± 13.8 µM. Moreover, the “Specific Binding Factors Mean ± SD (n = 3)” value at α-glucosidase [2] is reported as 1.87 ± 0.77%.
As to `CC(=O)OC(C)(C)CCC(=O)[C@](C)(O)[C@H]1[C@H](O)C[C@@]2(C)[C@@H]3CC=C4[C@@H](C[C@H](O)C(=O)C4(C)C)[C@]3(C)C(=O)C[C@]12C` [Compound 16, 23,24-dihydrocucurbitacin B], the inhibition at 1000 µg/mL on α-glucosidase [1] amounted to 27.5 ± 3.8%. On α-glucosidase [2], the “Specific Binding Factors Mean ± SD (n = 3)” value was 4.70 ± 0.76%.
Take `CC(=O)OC(C)(C)CCC(=O)[C@](C)(O)C1[C@H](O)C[C@@]2(C)[C@@H]3CC=C4[C@@H](CC(O)[C@@H](O)C4(C)C)[C@]3(C)C(=O)C[C@]12C` (some centres unmarked) [Compound 13, 23,24-dihydrocucurbitacin F-25-acetate]: on α-glucosidase [1], at 1000 µg/mL the inhibition was 21.7 ± 0.58%. The “Specific Binding Factors Mean ± SD (n = 3)” value at α-glucosidase [2] is on record as 1.31 ± 0.06%.
`CC1=C2CCC3C(C)(C(=O)CC4(C)C(C(C)CC/C=C(\C)C(=O)OC5OC(COC6OC(CO)C(O)C(O)C6O)C(O)C(O)C5O)C(OC5OC(CO)C(O)C(O)C5O)CC34C)C2CCC1=O` (centres unmarked) [Compound 4, Siraitic acid III E]: testing at 1000 µg/mL against α-glucosidase [1] gave an inhibition of 36.74 ± 0.36%. The “Specific Binding Factors Mean ± SD (n = 3)” value at α-glucosidase [2] came to 2.93 ± 0.72%.
Take `C/C(=C\CCC(C)C1CCC2(C)C3CCC45OCC3(C(=O)CC12C)C4CCC(=O)C5C)C(=O)OC1OC(COC2OC(CO)C(O)C(O)C2O)C(O)C(O)C1O` (centres unmarked) [Compound 12, Siraitic acid II B]: at α-glucosidase [1], the inhibition at 1000 µg/mL was found to be 51.3 ± 0.83%. Further, the IC50 at α-glucosidase [1] (read-out: IC50) stood at 1030 ± 36.9 µM. Besides, the “Specific Binding Factors Mean ± SD (n = 3)” value on α-glucosidase [2] is 6.65 ± 1.18%.
